Test results: US6344562B1, “Thiazole derivatives” (Hoffmann-La Roche Inc., priority 1998, dated 2002)
Structures can show the parent of a compound that is named as a salt.

Compound	melting point
O=C(O)C(F)(F)F.O=C(O)C[C@H](NC(=O)CCCc1csc(NC(=O)NCc2ccccc2)n1)C(=O)NCc1ccccc1	159 °C
Cl.Cl.O=C(O)CC(NC(=O)CNC(=O)c1csc(N=C2NCCN2)n1)c1cccnc1 (centres unmarked)	170 to 172 °C
Cc1nc(NC(=N)N)sc1C(=O)NCCC(=O)NCCC(=O)O.Cl.Cl	170 °C
CC(=O)O.Cc1nc(N=C2NCCCN2)sc1C(=O)NCCCCC(CC(=O)O)c1ccccc1.Cl (racemic)	60 to 63 °C
N=C(N)Nc1nc(C(=O)NCC(=O)NC(CC(=O)O)c2ccccc2)cs1 (racemic) (as salt: hydrochloride) [Example 23, rac-3-[2-[(2-guanidino-thiazole-4-carbonyl)-amino]-acetylamino]-3-phenyl-propionic acid]	202 to 205 °C
CCOC(=O)CC(NC(=O)c1cccc(NC(=O)c2sc(NC(=N)N)nc2C)c1)c1ccccc1 (racemic) [Example 10, ethyl rac-3-[3-[(2-guanidino-4-methyl-thiazole-5-carbonyl)-amino]-benzoylamino]-3-phenyl-propionate]	177 °C
CCOC(=O)CC(CCCNC(=O)c1csc(NC(=O)NCc2ccccc2)n1)c1ccccc1 (racemic) [Example 14, ethyl (RS)-6-{[2-(3-benzyl-ureido)-thiazole-4-carbonyl]-amino}-3-phenyl-hexanoate]	93 °C
N=C(N)Nc1nc(C(=O)NCCCC(CC(=O)O)c2ccccc2)cs1 (racemic) [Example 17, (RS)-6-[(2-guanidino-thiazole-4-carbonyl)-amino]-3-phenyl-hexanoic acid]	230 °C
CCOC(=O)CC(NC(=O)c1cccc(NC(=O)c2csc(NC(=N)N)n2)c1)c1ccccc1 (racemic) [Example 18, ethyl (RS)-3-[3-[(2-guanidino-thiazole-4-carbonyl)-amino]-benzoylamino]-3-phenyl-propionate]	117 °C
N=C(N)Nc1nc(C(=O)Nc2cccc(C(=O)NC(CC(=O)O)c3ccccc3)c2)cs1 (racemic) [Example 19, (RS)-3-{3-[(2-guanidino-thiazole-4-carbonyl)-amino]-benzoylamino}-3-phenyl-propionic acid]	235 °C
CCOC(=O)CC(NC(=O)CNC(=O)c1csc(NC(=N)N)n1)c1ccccc1 (racemic) [Example 22, ethyl rac-3-[2-[(2-guanidino-thiazole-4-carbonyl)-amino]-acetylamino]-3-phenyl-propionate]	177 to 178 °C (dec.)
CCOC(=O)CC(NC(=O)CCNC(=O)c1csc(NC(=N)N)n1)c1ccccc1 (racemic) [Example 24, ethyl rac-3-[3-[(2-guanidino-thiazole-4-carbonyl)-amino]-propionylamino]-3-phenyl-propionate]	85 to 87 °C
N=C(N)Nc1nc(C(=O)NCCC(=O)NC(CC(=O)O)c2ccccc2)cs1 (racemic) [Example 25, rac-3-[3-[(2-guanidino-thiazole-4-carbonyl)-amino]-propionylamino]-3-phenyl-propionic acid]	105 to 107 °C (dec.)
CCOC(=O)CC(NC(=O)CCNC(=O)c1sc(NC(=N)N)nc1C)c1ccccc1 (racemic) [Example 26, ethyl rac-3-[3-[(2-guanidino-4-methyl-thiazole-5-carbonyl)-amino]-propionylamino]-3-phenyl-propionate]	106 to 107 °C
CCOC(=O)CC(NC(=O)c1cccc(NC(=O)c2cnc(NC(=N)N)s2)c1)c1ccccc1 (racemic) [Example 72, ethyl (RS)-3-{3-[(2-guanidino-thiazole-5-carbonyl)-amino]-benzoylamino}-3-phenyl-propionate]	149 °C
N=C(N)Nc1ncc(C(=O)Nc2cccc(C(=O)NC(CC(=O)O)c3ccccc3)c2)s1 (racemic) [Example 73, (RS)-3-[3-[(2-guanidino-thiazole-5-carbonyl)-amino]-benzoylamino]-3-phenyl-propionic acid]	196 °C

The next lines start with the values.

melting point	Compound
174 °C	O=C(O)CCNC(=O)CNC(=O)c1csc(NC(=O)NCc2ccccc2)n1 (as salt: hydrochloride) [Example 132, 3-[2-[[2-(3-benzyl-ureido)-thiazole-4-carbonyl]-amino]-acetylamino]-propionic acid]
199 °C	O=C(O)CCCC(=O)CNC(=O)c1csc(NC(=O)NCc2ccccn2)n1 (as salt: hydrochloride) [Example 150, 5-oxo-6-{[2-(3-pyridin-2-ylmethyl-ureido)-thiazole-4-carbonyl]-amino}-hexanoic acid]
111 to 114 °C	CC(C)(C)OC(=O)C[C@H](NC(=O)CNC(=O)c1csc(NC(=O)NCc2ccccc2)n1)C(=O)OC(C)(C)C (as salt: succinate) [Example 157, di-tert-butyl (S)-2-(2-{[2-(3-benzyl-ureido)-thiazole-4-carbonyl]-amino}-acetylamino)-succinate]
193 °C	O=C(O)C[C@H](NC(=O)CNC(=O)c1csc(NC(=O)NCc2ccccc2)n1)C(=O)NCc1ccccc1 (as salt: trifluoroacetate) [Example 130, (S)-N-benzyl-3-[2-[[2-(3-benzyl-ureido)-thiazole-4-carbonyl]-amino]-acetylamino]-succinamic acid]
93 to 98 °C	CC(C)[C@H](NC(=O)[C@H](CC(=O)O)NC(=O)CNC(=O)c1csc(NC(=O)NCc2ccccc2)n1)C(=O)O (as salt: trifluoroacetate) [Example 142, (S)-2-[(S)-2-(2-{[2-(3-benzyl-ureido)-thiazole-4-carbonyl]-amino}-acetylamino)-3-carboxy-propionylamino]-3-methyl-butyric acid]
126 to 130 °C	O=C(O)C[C@H](NC(=O)CNC(=O)c1csc(NC(=O)NCc2ccccc2)n1)C(=O)N[C@H](C(=O)O)c1ccccc1 (as salt: trifluoroacetate) [Example 144, (S)-3-[2-[[2-(3-benzyl-ureido)-thiazole-4-carbonyl]-amino]-acetyl-amino]-N-[(S)-carboxy-phenyl-methyl)-succinamic acid]
183 °C	O=C(O)C[C@H](NC(=O)CNC(=O)c1csc(NC(=O)NCc2ccccc2)n1)C(=O)O (as salt: trifluoroacetate) [Example 158, (S)-2-(2-{[2-(3-benzyl-ureido)-thiazole-4-carbonyl]-amino}-acetylamino)-succinic acid]
135 °C	O=C(O)C[C@H](NC(=O)CNC(=O)c1csc(NC(=O)NCc2ccccc2)n1)C(=O)NCc1cccnc1 (as salt: trifluoroacetate) [Example 164, (S)-3-[2-[[2-(3-benzyl-ureido)-thiazole-4-carbonyl]-amino]-acetylamino]-N-pyridin-3-ylmethyl-succinamic acid]
186 to 188 °C	CCc1nc(NC(=N)N)sc1-c1cccc(NC(=O)CC(CC(=O)O)c2ccccc2)c1 (racemic) (as salt: salt) [Example 91, rac-4-[3-(4-ethyl-2-guanidino-thiazol-5-yl)-phenylcarbamoyl]-3-phenyl-butyric acid]
126 to 129 °C	CCOC(=O)CC(CC(=O)CNC(=O)c1csc(NC(=O)NCc2ccccc2)n1)C(=O)OCC (racemic) (as salt: succinate) [Example 155, diethyl rac-2-[3-[[2-(3-benzyl-ureido)-thiazole-4-carbonyl]-amino]-2-oxo-propyl]-succinate]
116 °C	CCOC(=O)CC(NC(=O)c1cc(NC(=O)c2sc(NC(=N)N)nc2C)cc(OCc2ccccc2)c1)c1ccccc1 (racemic) [Example 74, ethyl (RS)-3-{3-benzyloxy-5-[(2-guanidino-4-methyl-thiazole-5-carbonyl)-amino]-benzoylamino}-3-phenyl-propionate]
123 to 126 °C	CCOC(=O)CC(NC(=O)c1ccc(OC)c(NC(=O)c2sc(NC(=N)N)nc2C)c1)c1ccccc1 (racemic) [Example 78, ethyl (RS)-3-{3-[(2-guanidino-4-methyl-thiazole-5-carbonyl)-amino]-4-methoxy-benzoylamino}-3-phenyl-propionate]
186 °C	N=C(N)Nc1nc(C(=O)NCC(=O)NC(CC(=O)O)c2cccnc2)cs1 (racemic) [Example 81, (RS)-3-{2-[(2-guanidino-thiazole-4-carbonyl)-amino]-acetylamino}-3-pyridin-3-yl-propionic acid]
138 °C	CCOC(=O)CC(CCCCNC(=O)c1sc(NC(=N)N)nc1C)c1ccccc1 (racemic) [Example 84, ethyl (RS)-7-[(2-guanidino-4-methyl-thiazole-5-carbonyl)-amino]-3-phenyl-heptanoate]
125 °C	Cc1nc(NC(=N)N)sc1C(=O)NCCCCC(CC(=O)O)c1ccccc1 (racemic) [Example 85, (RS)-7-[(2-guanidino-4-methyl-thiazole-5-carbonyl)-amino]-3-phenyl-heptanoic acid]
245 to 247 °C (dec.)	CCCc1nc(NC(=N)N)sc1-c1cccc(NC(=O)CC(CC(=O)O)c2ccccc2)c1 (racemic) [Example 92, rac-4-[3-(2-guanidino-4-propyl-thiazol-5-yl)-phenylcarbamoyl]-3-phenyl-butyric acid]
186 to 188 °C (dec.)	CCCCCc1nc(NC(=N)N)sc1-c1cccc(NC(=O)CC(CC(=O)O)c2ccccc2)c1 (racemic) [Example 94, rac-4-[3-(2-guanidino-4-pentyl-thiazol-5-yl)-phenylcarbamoyl]-3-phenyl-butyric acid]
128 °C	CCOC(=O)CC(CCCNC(=O)c1csc(NC(=O)NCc2ccccc2)n1)C(=O)NCc1ccccc1 (racemic) [Example 147, ethyl rac-3-benzylcarbamoyl-6-{[2-(3-benzyl-ureido)-thiazole-4-carbonyl]-amino}-hexanoate]
198 to 199 °C	CCOC(=O)CC(NC(=O)CNC(=O)c1csc(N=C2NCCN2)n1)c1cccnc1 (racemic) [Example 171, ethyl (RS)-3-(2-{[2-(imidazolidin-2-ylidenamino)-thiazole-4-carbonyl]-amino}-acetylamino)-3-pyridin-3-yl-propionate]
